The values that follow come from patent US11584747B2, “Substituted pyridopyrimidinonyl compounds useful as T cell activators” (BRISTOL-MYERS SQUIBB COMPANY, priority 2019, dated 2023).

Each structure is given as a SMILES string. Like-named read-outs stand apart in the source and are kept apart here.

In one experiment the target is human DGKζ (Homo sapiens (Human), UniProt Q13574). In words: DGKζ LIPGLO assay (extruded liposome substrate, ADP-Glo luminescence). The class given is biochemical.
A further experiment concerns the target human DGKα (Homo sapiens (Human), UniProt P23743). In words: DGKα ADPGLO assay (detergent/lipid micelle substrate). The class given is biochemical. The procedure:
DGK Alpha ADPGLO (Truncated) IC50 (uM)
The detergent/lipid micelle was prepared by combining 15 g phosphatidylserine (Avanti 840035P) and 1 g diacylglycerol (8008110) and dissolving into 150 mL chloroform in a 2 L round bottom flask. Chloroform was removed under high vacuum by rotary evaporation. […] The lipid/detergent solution was split into 5 mL aliquots and stored at −80° C.
A general note: ADP-Glo first removes unused ATP, then detects ADP through luciferase.

Where [1] appears, read: liposome assay, read-out: DGK zeta LIPGLO IC50.
Where [2] appears, read: truncated DGK alpha, read-out: DGK alpha ADPGLO (Truncated) IC50.
Where [3] appears, read: liposome (LIPGLO) assay, read-out: DGK zeta (liposome assay) IC50.
The mark [4] stands for this setting: ADPGLO assay, read-out: DGK alpha ADPGLO IC50.

human DGKζ, sequence (Q13574 other isoform, or with tags, fused parts or gaps): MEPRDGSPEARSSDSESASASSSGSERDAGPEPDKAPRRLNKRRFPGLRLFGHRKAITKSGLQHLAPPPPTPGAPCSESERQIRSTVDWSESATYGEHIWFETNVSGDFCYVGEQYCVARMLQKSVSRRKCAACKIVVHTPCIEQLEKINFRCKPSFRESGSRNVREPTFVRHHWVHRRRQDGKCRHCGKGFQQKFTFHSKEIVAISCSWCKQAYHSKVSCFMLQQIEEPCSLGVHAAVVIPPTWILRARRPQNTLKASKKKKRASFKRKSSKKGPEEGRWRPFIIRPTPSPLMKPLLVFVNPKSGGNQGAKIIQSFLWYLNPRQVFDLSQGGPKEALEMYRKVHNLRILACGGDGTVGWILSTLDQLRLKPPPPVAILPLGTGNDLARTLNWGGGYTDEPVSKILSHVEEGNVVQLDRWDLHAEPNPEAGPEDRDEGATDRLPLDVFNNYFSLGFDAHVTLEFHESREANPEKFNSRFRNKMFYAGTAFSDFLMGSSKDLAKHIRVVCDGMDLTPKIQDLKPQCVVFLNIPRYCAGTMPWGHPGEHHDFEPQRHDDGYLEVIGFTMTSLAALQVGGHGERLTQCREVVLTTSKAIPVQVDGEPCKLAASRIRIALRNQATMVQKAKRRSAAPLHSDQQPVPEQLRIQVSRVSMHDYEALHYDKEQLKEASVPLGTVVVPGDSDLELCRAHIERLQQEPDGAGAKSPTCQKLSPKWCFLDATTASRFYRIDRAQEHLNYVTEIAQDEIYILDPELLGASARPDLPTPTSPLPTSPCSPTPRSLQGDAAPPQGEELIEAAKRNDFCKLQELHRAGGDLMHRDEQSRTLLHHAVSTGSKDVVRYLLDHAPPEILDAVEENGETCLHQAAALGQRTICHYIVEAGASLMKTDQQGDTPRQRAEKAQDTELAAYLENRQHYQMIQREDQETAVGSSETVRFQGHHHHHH
human DGKα, sequence (P23743 whole entry, looked up, the tested form may be a part): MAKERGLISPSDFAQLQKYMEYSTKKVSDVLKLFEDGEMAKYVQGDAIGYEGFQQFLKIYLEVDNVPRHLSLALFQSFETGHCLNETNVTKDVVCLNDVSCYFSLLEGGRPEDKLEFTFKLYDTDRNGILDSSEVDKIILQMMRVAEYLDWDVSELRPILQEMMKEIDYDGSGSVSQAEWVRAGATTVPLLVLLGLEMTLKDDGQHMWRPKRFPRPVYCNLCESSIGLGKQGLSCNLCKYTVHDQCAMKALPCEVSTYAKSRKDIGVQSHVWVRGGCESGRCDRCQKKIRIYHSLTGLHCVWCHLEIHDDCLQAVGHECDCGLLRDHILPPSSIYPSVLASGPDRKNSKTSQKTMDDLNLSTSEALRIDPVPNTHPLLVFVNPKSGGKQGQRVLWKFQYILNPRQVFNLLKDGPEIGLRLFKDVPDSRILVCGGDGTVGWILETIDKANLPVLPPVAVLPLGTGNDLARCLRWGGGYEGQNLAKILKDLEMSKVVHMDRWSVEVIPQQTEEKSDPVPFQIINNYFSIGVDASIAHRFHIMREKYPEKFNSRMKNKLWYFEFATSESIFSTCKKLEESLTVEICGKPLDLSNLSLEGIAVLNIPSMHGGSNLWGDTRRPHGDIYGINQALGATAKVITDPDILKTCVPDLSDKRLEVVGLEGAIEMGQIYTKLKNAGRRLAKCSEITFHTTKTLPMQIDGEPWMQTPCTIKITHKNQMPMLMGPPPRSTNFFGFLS

For `CC[C@@H]1CN(c2nc(=O)n(C)c3ccc(C#N)nc23)[C@@H](CC)CN1CC1CCC(F)(F)CC1` [Example 269, 4-((2S,5R)-4-((4,4-difluorocyclohexyl)methyl)-2,5-diethylpiperazin-1-yl)-1-methyl-2-oxo-1,2-dihydropyrido[3,2-d]pyrimidine-6-carbonitrile], the values for the IC50 on human DGKζ (setting [1]) and on human DGKα (setting [2]) were 260 nM and 580 nM, respectively.

For the compound `CC[C@@H]1CN(c2nc(=O)n(C)c3ccc(C(F)F)nc23)[C@@H](C)CN1C(C)c1ccc(C(F)(F)F)cc1` (stereo partly drawn) [Example 442, 6-(difluoromethyl)-4-((2S,5R)-5-ethyl-2-methyl-4-(1-(4-(trifluoromethyl)phenyl)ethyl)piperazin-1-yl)-1-methylpyrido[3,2-d]pyrimidin-2(1H)-one], the IC50 (usually the concentration at which inhibition is half-maximal) came to 910 nM on human DGKζ (setting [3]) and 280 nM on human DGKα (setting [4]).

On to `CCC(c1ccc(C2CC2)cc1)N1C[C@H](CC)N(c2nc(=O)n(C)c3ccc(C#N)nc23)C[C@H]1CC` (stereo partly drawn) [Example 200, 4-((2S,5R)-4-(1-(4-cyclopropylphenyl)propyl)-2,5-diethylpiperazin-1-yl)-1-methyl-2-oxo-1,2-dihydropyrido[3,2-d]pyrimidine-6-carbonitrile], for which the IC50 at human DGKζ (setting [1]) stood at 13 nM; at human DGKα (setting [2]), 12 nM.

Turning to `CC[C@H]1CN(C(C)c2ccc(C3(C#N)CC3)cc2)[C@H](CC)CN1c1nc(=O)n(C)c2ccc(C#N)nc12` (stereo partly drawn) [Example 264, 4-((2S,5R)-4-(1-(4-(1-cyanocyclopropyl)phenyl)ethyl)-2,5-diethylpiperazin-1-yl)-1-methyl-2-oxo-1,2-dihydropyrido[3,2-d]pyrimidine-6-carbonitrile], the figures for the IC50 at human DGKζ (setting [1]) and at human DGKα (setting [2]) were 1170 nM and 750 nM, respectively.

For `CC[C@H]1CN(C(C)c2ccc(C(F)(F)F)cc2)[C@H](CC)CN1c1nc(=O)n(C)c2ccc(OC)nc12` (single isomer, unassigned) [Example 427], the figures for the IC50 at human DGKζ (setting [3]) and on human DGKα (setting [4]) were 4450 nM and 460 nM, respectively.

As for `CCC(c1ccc(C(F)(F)F)cc1)N1C[C@H](CC)N(c2nc(=O)n(C)c3ccc(Cl)nc23)C[C@H]1CC` (single isomer, unassigned) [Example 422], the IC50 on human DGKζ (setting [3]) came out at 6870 nM; on human DGKα (setting [4]), 230 nM.

In the case of `CC[C@H]1CN(C(C)c2ccc(CN3CCCCC3)cc2)[C@H](CC)CN1c1nc(=O)n(C)c2ccc(C#N)nc12` (stereo partly drawn) [Example 282, 4-((2S,5R)-2,5-diethyl-4-(1-(4-(piperidin-1-ylmethyl)phenyl)ethyl)piperazin-1-yl)-1-methyl-2-oxo-1,2-dihydropyrido[3,2-d]pyrimidine-6-carbonitrile], the IC50 at human DGKζ (setting [1]) was found to be 1160 nM; on human DGKα (setting [2]), 150 nM.

With `CCOc1ccc2c(n1)c(N1C[C@@H](CC)N(C(CC)c3ccc(C(F)(F)F)cc3)C[C@@H]1CC)nc(=O)n2C` (stereo partly drawn) [Example 438, 4-((2S,5R)-2,5-diethyl-4-(1-(4-(trifluoromethyl)phenyl)propyl)piperazin-1-yl)-6-ethoxy-1-methylpyrido[3,2-d]pyrimidin-2(1H)-one], the results for the IC50 on human DGKζ (setting [3]) and on human DGKα (setting [4]) were 250000 nM and 175000 nM, respectively.

As to `CC[C@@H]1CN(c2nc(=O)n(C)c3ccc(C#N)nc23)[C@@H](C)CN1C(c1nnc(C2CC2)o1)C(C)C` (single isomer, unassigned) [Example 367], the values for the IC50 at human DGKζ (setting [3]) and on human DGKα (setting [4]) were 850 nM and 120 nM, respectively.

On to `CC[C@@H]1CN(c2nc(=O)n(C)c3ccc(C#N)nc23)[C@@H](C)CN1C(c1nc(C2CC2)no1)C(C)C` (stereo partly drawn) [Example 366, 4-((2S,5R)-4-(1-(3-cyclopropyl-1,2,4-oxadiazol-5-yl)-2-methylpropyl)-5-ethyl-2-methylpiperazin-1-yl)-1-methyl-2-oxo-1,2-dihydropyrido[3,2-d]pyrimidine-6-carbonitrile], for which the IC50 on human DGKζ (setting [3]) was found to be 620 nM; on human DGKα (setting [4]), 1450 nM.

In the case of `CC[C@@H]1CN(c2nc(=O)n(C)c3ccc(C#N)nc23)[C@@H](C)CN1C(C)c1ccc(CNC(=O)OC)cc1` (stereo partly drawn) [Example 360, Methyl (4-(1-((2R,5S)-4-(6-cyano-1-methyl-2-oxo-1,2-dihydropyrido[3,2-d]pyrimidin-4-yl)-2-ethyl-5-methylpiperazin-1-yl)ethyl)benzyl)carbamate], the 50% inhibitory concentration (IC50) was 660 nM at human DGKζ (setting [3]) and 150 nM at human DGKα (setting [4]).

As to `CCC(c1ccc(C2CC2)cc1)N1C[C@H](C)N(c2nc(=O)n(C)c3ccc(C#N)nc23)C[C@H]1C` (stereo partly drawn) [Example 379, 4-((2S,5R)-4-(1-(4-cyclopropylphenyl)propyl)-2,5-dimethylpiperazin-1-yl)-1-methyl-2-oxo-1,2-dihydropyrido[3,2-d]pyrimidine-6-carbonitrile], the 50% inhibitory concentration (IC50) came to 3600 nM on human DGKζ (setting [3]) and 450 nM at human DGKα (setting [4]).

On to `CC[C@@H]1CN(c2nc(=O)n(C)c3ccc(C#N)nc23)[C@@H](C)CN1C(c1ccc(F)cc1)c1cccc(C(F)F)n1` (stereo partly drawn) [Example 316, 4-((2 S,5R)-4-((6-(difluoromethyl)pyridin-2-yl)(4-fluorophenyl)methyl)-5-ethyl-2-methylpiperazin-1-yl)-1-methyl-2-oxo-1,2-dihydropyrido[3,2-d]pyrimidine-6-carbonitrile], for which the results for the half-maximal inhibitory concentration (IC50) on human DGKζ (setting [3]) and at human DGKα (setting [4]) were 31 nM and 87 nM, respectively.

Consider `CCC(c1ccc(C2OCCO2)cc1)N1C[C@H](C)N(c2nc(=O)n(C)c3ccc(C#N)nc23)C[C@H]1CC` (stereo partly drawn) [Example 332, 4-((2S,5R)-4-(1-(4-(1,3-dioxolan-2-yl)phenyl)propyl)-5-ethyl-2-methylpiperazin-1-yl)-1-methyl-2-oxo-1,2-dihydropyrido[3,2-d]pyrimidine-6-carbonitrile], for which the IC50 came to 720 nM at human DGKζ (setting [3]) and 74 nM at human DGKα (setting [4]).

In the case of `CCC(C1CC(F)(F)C1)N1C[C@H](C)N(c2nc(=O)n(C)c3ccc(C#N)nc23)C[C@H]1C` (stereo partly drawn) [Example 456, 4-((2S,5R)-4-(1-(3,3-difluorocyclobutyl)propyl)-2,5-dimethylpiperazin-1-yl)-1-methyl-2-oxo-1,2-dihydropyrido[3,2-d]pyrimidine-6-carbonitrile], the IC50 at human DGKζ (setting [3]) was found to be 12100 nM; on human DGKα (setting [4]) it was 10200 nM.

Turning to `CCC(c1ccc(OC2CC2)cc1)N1C[C@H](C)N(c2nc(=O)n(C)c3ccc(C#N)nc23)C[C@H]1CC` (stereo partly drawn) [Example 311, 4-((2S,5R)-4-(1-(4-cyclopropoxyphenyl)propyl)-5-ethyl-2-methylpiperazin-1-yl)-1-methyl-2-oxo-1,2-dihydropyrido[3,2-d]pyrimidine-6-carbonitrile], the half-inhibitory concentration (IC50) came to 6 nM on human DGKζ (setting [3]) and 13 nM on human DGKα (setting [4]).

On to `CCC(c1ccc(C2CC2)cc1)N1C[C@H](C)N(c2nc(=O)n(C)c3ccc(C#N)nc23)C[C@H]1CC` (stereo partly drawn) [Example 300, 4-((2S,5R)-4-(1-(4-cyclopropylphenyl)propyl)-5-ethyl-2-methylpiperazin-1-yl)-1-methyl-2-oxo-1,2-dihydropyrido[3,2-d]pyrimidine-6-carbonitrile], for which the figures for the IC50 at human DGKζ (setting [1]) and at human DGKα (setting [2]) were 22 nM and 13 nM, respectively.

As to `CCOC(=O)[C@H]1C[C@@H]1Oc1ccc(C(C)N2C[C@H](CC)N(c3nc(=O)n(C)c4ccc(C#N)nc34)C[C@H]2CC)cc1` (stereo partly drawn) [Example 259, ethyl (1S,2S)-2-(4-(1-((2R,5S)-4-(6-cyano-1-methyl-2-oxo-1,2-dihydropyrido[3,2-d]pyrimidin-4-yl)-2,5-diethylpiperazin-1-yl)ethyl)phenoxy)cyclopropane-1-carboxylate], the IC50 at human DGKζ (setting [1]) was determined as 1800 nM; at human DGKα (setting [2]), 2170 nM.

Take `CCC(c1ccc(OC2CC2)cc1)N1C[C@H](C)N(c2nc(=O)n(C)c3ccc(C#N)nc23)C[C@H]1CC` (stereo partly drawn) [Example 312, 4-((2S,5R)-4-(1-(4-cyclopropoxyphenyl)propyl)-5-ethyl-2-methylpiperazin-1-yl)-1-methyl-2-oxo-1,2-dihydropyrido[3,2-d]pyrimidine-6-carbonitrile]: the IC50 was 870 nM on human DGKζ (setting [3]) and 600 nM on human DGKα (setting [4]).

With `CC[C@@H]1CN(c2nc(=O)n(C)c3ccc(C#N)nc23)[C@@H](C)CN1C(C)c1ccc(CNC(=O)OC)cc1` (stereo partly drawn) [Example 359, Methyl (4-(1-((2R,5S)-4-(6-cyano-1-methyl-2-oxo-1,2-dihydropyrido[3,2-d]pyrimidin-4-yl)-2-ethyl-5-methylpiperazin-1-yl)ethyl)benzyl)carbamate], the concentration for half-maximal inhibition (IC50) at human DGKζ (setting [3]) is 220 nM; at human DGKα (setting [4]) it was 24 nM.

For the compound `COC[C@H]1CN(C(C)c2ccc(C(F)(F)F)cc2)[C@H](C)CN1c1nc(=O)n(C)c2ccc(C#N)nc12` (single isomer, unassigned) [Example 410], the figures for the IC50 at human DGKζ (setting [3]) and on human DGKα (setting [4]) were 2370 nM and 220 nM, respectively.

In the case of `CCC(c1ccc(C2CC2)cc1F)N1C[C@H](C)N(c2nc(=O)n(C)c3ccc(C#N)nc23)C[C@H]1C` (stereo partly drawn) [Example 380, 4-((2S,5R)-4-(1-(4-cyclopropyl-2-fluorophenyl)propyl)-2,5-dimethylpiperazin-1-yl)-1-methyl-2-oxo-1,2-dihydropyrido[3,2-d]pyrimidine-6-carbonitrile], the IC50 is 180 nM on human DGKζ (setting [3]) and 29 nM at human DGKα (setting [4]).

Turning to `CCC(c1ccc(C(F)(F)F)cc1)N1C[C@H](C)N(c2nc(=O)n(C)c3ccc(C#N)nc23)C[C@H]1COC` (single isomer, unassigned) [Example 398], the IC50 on human DGKζ (setting [3]) is 64 nM; on human DGKα (setting [4]), 90 nM.

For the compound `CCC(c1ccc(Br)cc1)N1C[C@H](C)N(c2nc(=O)n(C)c3ccc(C#N)nc23)C[C@H]1CC` (stereo partly drawn) [Example 322, 4-((2 S,5R)-4-(1-(4-bromophenyl)propyl)-5-ethyl-2-methylpiperazin-1-yl)-1-methyl-2-oxo-1,2-dihydropyrido[3,2-d]pyrimidine-6-carbonitrile], the figures for the IC50 on human DGKζ (setting [3]) and at human DGKα (setting [4]) were 760 nM and 7 nM, respectively.

As to `CC[C@@H]1CN(c2nc(=O)n(C)c3ccc(C#N)nc23)[C@@H](CC)CN1Cc1ccc(OCC2CC2)cc1` [Example 185, 4-((2S,5R)-4-(4-(Cyclopropylmethoxy)benzyl)-2,5-diethylpiperazin-1-yl)-1-methyl-2-oxo-1,2-dihydropyrido[3,2-d]pyrimidine-6-carbonitrile], the IC50 amounted to 610 nM at human DGKζ (setting [1]) and 270 nM at human DGKα (setting [2]).
